Results published in ChEMBL document CHEMBL1201862, “PubChem BioAssay data set” (2004).
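Grown in 96-well plates, cells were treated for 48 hours with each compound at five concentrations. Insufficient inhibition: endpoint recorded as highest concentration tested. GI50: concentration for 50% inhibition of growth.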 Active and inactive are the calls of the source. Cut-off read from the data, not from the text of the source: active = GI50 up to about 1.1 µM and inactive = higher.

Key:
Assay in all cases: DTP human tumour cell line panel, 48 h
Malme-3M = system: Malme-3M
SK-OV-3 = system: SK-OV-3
NCI/ADR-RES = system: NCI/ADR-RES
OVCAR-4 = system: OVCAR-4
IGROV-1 = system: IGROV-1
SNB-75 = system: SNB-75
A498 = system: A498
HOP-62 = system: HOP-62
SNB-19 = system: SNB-19
UACC-257 = system: UACC-257
HCT-116 = system: HCT-116
SF-539 = system: SF-539
OVCAR-5 = system: OVCAR-5
U-251 = system: U-251
CAKI-1 = system: CAKI-1
CCRF-CEM = system: CCRF-CEM
OVCAR-3 = system: OVCAR-3
T47D = system: T47D
NCI-H23 = system: NCI-H23
SR = system: SR

Measured: GI50

Cc1ccc(S(=O)(=O)Nn2c(O)c(C#N)c(-c3ccc([N+](=O)[O-])cc3)c(C#N)c2=O)cc1
inactive: Malme-3M > 100 µM | SK-OV-3 > 100 µM | NCI/ADR-RES > 100 µM | OVCAR-4 > 100 µM | IGROV-1 > 100 µM | SNB-75 > 100 µM | A498 > 100 µM | HOP-62 > 100 µM | SNB-19 > 100 µM | UACC-257 > 100 µM | HCT-116 > 100 µM | SF-539 > 100 µM | OVCAR-5 > 100 µM | U-251 > 100 µM | CAKI-1 > 100 µM | CCRF-CEM > 100 µM

N#C/C(=C/NC(=S)c1ccncc1)C(N)=O
inactive: SK-OV-3 > 100 µM | OVCAR-3 > 100 µM | NCI/ADR-RES > 100 µM | OVCAR-4 > 100 µM | IGROV-1 > 100 µM | SNB-75 > 100 µM | A498 > 100 µM | T47D > 100 µM | NCI-H23 > 100 µM | HOP-62 > 100 µM | SNB-19 > 100 µM | UACC-257 > 100 µM | HCT-116 > 100 µM | SF-539 > 100 µM | OVCAR-5 > 100 µM | U-251 > 100 µM | CAKI-1 > 100 µM

O=C(CNc1ccccc1[N+](=O)[O-])Nn1cnc2ccc(S(=O)(=O)Nc3ccccc3[N+](=O)[O-])cc2c1=O
inactive: Malme-3M > 100 µM | SK-OV-3 > 100 µM | OVCAR-3 > 100 µM | NCI/ADR-RES > 100 µM | OVCAR-4 > 100 µM | IGROV-1 78.9 µM | SNB-75 > 100 µM | NCI-H23 > 100 µM | HOP-62 > 100 µM | SNB-19 > 100 µM | SR > 100 µM | UACC-257 > 100 µM | HCT-116 > 100 µM | SF-539 > 100 µM | OVCAR-5 > 100 µM | U-251 > 100 µM | CAKI-1 > 100 µM | CCRF-CEM > 100 µM

COC(=O)C(C(=O)C(=O)Nc1cccc(OC)c1)c1cnc2ccccc2n1 (stereo not drawn)
inactive: Malme-3M > 100 µM | SK-OV-3 > 100 µM | OVCAR-4 > 100 µM | IGROV-1 > 100 µM | SNB-75 > 100 µM | A498 > 100 µM | NCI-H23 > 100 µM | HOP-62 > 100 µM | SNB-19 > 100 µM | SR > 100 µM | UACC-257 > 100 µM | HCT-116 29.3 µM | SF-539 > 100 µM | OVCAR-5 > 100 µM | U-251 > 100 µM | CAKI-1 > 100 µM | CCRF-CEM > 100 µM

CCC12CCCC(=O)N1C(CO)C(c1ccccc1)O2 (stereo not drawn)
inactive: Malme-3M > 100 µM | OVCAR-3 > 100 µM | OVCAR-4 > 100 µM | IGROV-1 > 100 µM | SNB-75 > 100 µM | A498 > 100 µM | NCI-H23 > 100 µM | HOP-62 > 100 µM | SNB-19 > 100 µM | SR > 100 µM | UACC-257 > 100 µM | HCT-116 > 100 µM | SF-539 > 100 µM | OVCAR-5 > 100 µM | U-251 > 100 µM | CAKI-1 > 100 µM | CCRF-CEM > 100 µM

Cc1cc(S(=O)(=O)[N-]/C(=N/S(=O)(=O)c2ccc(Cl)cc2)[n+]2ccc(N(C)C)cc2)c(SCC(=O)O)cc1Cl
inactive: Malme-3M 33.2 µM | SK-OV-3 75 µM | OVCAR-3 69.7 µM | OVCAR-4 34.8 µM | SNB-75 20.5 µM | A498 45.4 µM | T47D > 100 µM | NCI-H23 > 100 µM | HOP-62 17.9 µM | SNB-19 > 100 µM | SR 35 µM | UACC-257 > 100 µM | HCT-116 26.4 µM | SF-539 35.5 µM | OVCAR-5 21.5 µM | U-251 > 100 µM | CAKI-1 > 100 µM | CCRF-CEM 45.3 µM

CC(=O)OCC1OC(c2nc3ccccc3s2)=CC(OC(C)=O)C1OC(C)=O (stereo not drawn)
inactive: Malme-3M > 100 µM | OVCAR-3 > 100 µM | NCI/ADR-RES > 100 µM | OVCAR-4 > 100 µM | IGROV-1 > 100 µM | SNB-75 22.2 µM | A498 > 100 µM | NCI-H23 > 100 µM | HOP-62 > 100 µM | SNB-19 > 100 µM | SR 41.1 µM | UACC-257 > 100 µM | HCT-116 57.5 µM | SF-539 > 100 µM | OVCAR-5 > 100 µM | U-251 89.9 µM | CAKI-1 > 100 µM | CCRF-CEM > 100 µM

O=C(Nc1ccc(Cl)cc1Cl)C(=O)C(C(=O)c1ccncc1)C1OC(=O)c2ccccc21 (stereo not drawn)
inactive: Malme-3M > 100 µM | SK-OV-3 > 100 µM | OVCAR-3 > 100 µM | OVCAR-4 > 100 µM | IGROV-1 > 100 µM | SNB-75 > 100 µM | A498 > 100 µM | NCI-H23 > 100 µM | HOP-62 > 100 µM | SNB-19 > 100 µM | SR > 100 µM | UACC-257 > 100 µM | HCT-116 > 100 µM | SF-539 > 100 µM | OVCAR-5 > 100 µM | U-251 > 100 µM | CAKI-1 > 100 µM | CCRF-CEM > 100 µM

CC(C)(CC#N)c1cc(CC(C)(C)c2cc(CC(C)(C)c3cc(C(C)(C)C4(C)OCCO4)no3)no2)no1
inactive: Malme-3M 91 µM | SK-OV-3 27.1 µM | OVCAR-3 56 µM | NCI/ADR-RES 47.2 µM | OVCAR-4 23.5 µM | IGROV-1 54.1 µM | SNB-75 14.7 µM | A498 28.9 µM | T47D 9.08 µM | NCI-H23 > 100 µM | HOP-62 27 µM | SNB-19 21.8 µM | UACC-257 67.6 µM | HCT-116 51.4 µM | OVCAR-5 > 100 µM | U-251 39.8 µM | CAKI-1 22.4 µM | CCRF-CEM 45.8 µM

CC1=NN(c2ccccc2)C(=O)C1=C1SCCCS1
inactive: Malme-3M 41.8 µM | SK-OV-3 46.3 µM | OVCAR-3 22.3 µM | IGROV-1 30.2 µM | SNB-75 > 100 µM | A498 45.7 µM | NCI-H23 29.2 µM | HOP-62 42.1 µM | SNB-19 22.5 µM | SR 14.3 µM | UACC-257 28.2 µM | HCT-116 13.8 µM | OVCAR-5 54 µM | U-251 18.1 µM | CAKI-1 15 µM | CCRF-CEM 11.7 µM

CCCCCCCCCCCCN(O)C(=O)c1ccccc1
inactive: Malme-3M 17.5 µM | SK-OV-3 43.1 µM | OVCAR-3 > 100 µM | IGROV-1 37.8 µM | SNB-75 22.9 µM | A498 18.8 µM | NCI-H23 14.9 µM | SNB-19 42.6 µM | SR 8.26 µM | UACC-257 18.8 µM | HCT-116 42 µM | SF-539 20.6 µM | OVCAR-5 21.5 µM | U-251 11.8 µM | CCRF-CEM 3.82 µM
